Test results published in patent US11369569B2, “Target-specific delivery of therapeutic agents” (University of Virginia Patent Foundation, priority 2015, dated 2022).
Where two headings read alike, the source gives them in different places.

Columns and labels:
[1] = tested on: cell types of interest in the infarct/border zone; experiment: Immunofluorescence of heart sections to identify cell types bound by phage clones; type: in vivo, mice; conditions: immunostaining
Procedure: Following ex vivo imaging of heart and liver, hearts from the mice under study were fixed in 4% paraformaldehyde for 1 h followed by equilibration in 30% sucrose for overnight at 4° C. The hearts were washed 3-4 times in DPBS (Dulbecco's phosphate-buffered saline) and placed in OCT medium (Sakura Finetek USA, Inc, Torrance, Calif.) and frozen by placing over liquid N2 vapors. The embedded tissue samples cut into 5-7 μm sections using a cryostat (Leica Microsystems Inc, Buffalo Grove, Ill.), for subsequent imaging with a fluorescence microscope fitted with appropriate filter sets (Olympus BX41). Cell types of interest in the infarct/border zone were identified by immunohistochemistry using the following antibodies: rat anti-mouse CD 31 at 1:250 dilution (endothelial marker)(BD Biosciences, San Jose, Calif.), rat anti-mouse myoglobin at 1:200 (cardiomyocyte marker) (Santa Cruz Biotechnology Inc, Dallas, Tex.), anti-alpha-smooth muscle actin (aSMA) conjugated with Alexa Fluor 488 at 1:200 (myofibroblast marker) (Sigma Chemical Co., St. Louis, Mo.), and rabbit anti-mouse c-Kit at 1:150 (cardiac progenitor cell marker) (Santa Cruz Biotechnology Inc, Dallas, Tex.). […] Appropriate secondary antibodies were employed as needed to identify the primary antibodies:goat anti-rat Alexa Fluor 488 (1:250) and goat anti-rabbit Alexa Fluor 488 (1:250) (Abcam, Cambridge, Mass.). Binding of I-1 and B-50 phage clones to cardiomyocytes and c-Kit+ cells was determined by flow cytometry. The RL-14 cardiomyocyte cell line (ATCC) was used to test the binding of fluorescently labeled I-1 phage (VivoTag 645) and myocardial infarct derived cardiac and bone marrow cells to test the binding of fluorescently labeled B-50 phage (VivoTag 680).

[2] = tested on: cell types of interest in the infarct/border zone; experiment: Immunofluorescence co-localization of peptide-conjugated liposomes with cell markers (JACoP, Mander's overlap); type: in vivo, mice; conditions: post-MI hearts
VEGFR2 = target: T1, VEGFR2 (Mus musculus, UniProt P35918); type: in vivo; conditions: for Vessel volume fraction (VVF) in infarct region: day 7 post-MI
T1 construct: from tissue; host or cells: endothelium of infarct/border zone in mouse heart (in vivo)
T1 sequence (P35918 20-1345): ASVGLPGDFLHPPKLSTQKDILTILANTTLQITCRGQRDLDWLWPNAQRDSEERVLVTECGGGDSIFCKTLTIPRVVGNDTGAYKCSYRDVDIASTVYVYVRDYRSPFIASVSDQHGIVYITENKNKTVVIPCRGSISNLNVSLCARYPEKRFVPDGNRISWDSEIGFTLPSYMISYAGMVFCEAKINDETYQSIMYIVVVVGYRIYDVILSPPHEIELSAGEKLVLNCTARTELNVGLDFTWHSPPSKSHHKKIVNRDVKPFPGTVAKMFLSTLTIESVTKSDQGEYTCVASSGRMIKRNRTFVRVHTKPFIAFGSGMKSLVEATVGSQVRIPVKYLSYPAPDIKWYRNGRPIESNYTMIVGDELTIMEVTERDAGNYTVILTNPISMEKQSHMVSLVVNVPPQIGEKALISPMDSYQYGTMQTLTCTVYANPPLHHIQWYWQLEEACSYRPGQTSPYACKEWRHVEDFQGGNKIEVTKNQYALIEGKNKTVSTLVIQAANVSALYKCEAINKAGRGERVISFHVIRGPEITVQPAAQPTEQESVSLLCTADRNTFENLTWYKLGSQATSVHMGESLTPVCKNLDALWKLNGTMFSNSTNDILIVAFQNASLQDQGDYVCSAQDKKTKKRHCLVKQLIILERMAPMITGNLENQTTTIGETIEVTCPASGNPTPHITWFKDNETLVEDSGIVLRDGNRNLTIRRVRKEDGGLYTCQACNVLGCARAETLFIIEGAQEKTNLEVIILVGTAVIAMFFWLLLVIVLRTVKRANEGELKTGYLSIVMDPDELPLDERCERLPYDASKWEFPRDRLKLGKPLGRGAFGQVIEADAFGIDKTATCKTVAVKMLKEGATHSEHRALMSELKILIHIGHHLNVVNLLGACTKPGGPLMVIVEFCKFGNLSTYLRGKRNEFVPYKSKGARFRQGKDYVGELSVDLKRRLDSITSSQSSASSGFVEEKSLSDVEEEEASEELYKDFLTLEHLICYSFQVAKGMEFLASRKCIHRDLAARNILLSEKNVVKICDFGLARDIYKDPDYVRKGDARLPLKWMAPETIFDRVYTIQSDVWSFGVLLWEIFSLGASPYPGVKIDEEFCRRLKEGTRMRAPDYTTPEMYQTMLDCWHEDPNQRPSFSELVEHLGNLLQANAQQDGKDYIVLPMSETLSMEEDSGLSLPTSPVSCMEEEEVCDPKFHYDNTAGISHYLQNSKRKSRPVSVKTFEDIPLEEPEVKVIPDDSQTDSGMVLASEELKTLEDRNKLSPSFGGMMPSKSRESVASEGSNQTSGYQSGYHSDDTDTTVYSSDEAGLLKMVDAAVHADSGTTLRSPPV

EF fragment of Hornerin = target: T2, EF fragment of Hornerin (Homo sapiens, UniProt Q86YZ3); experiment: Biolayer interferometry of B-40 binding to hornerin EF fragments; conditions: biotinylated B-40 peptide on streptavidin sensors
T2 construct: Different versions of the hornerin fragments containing EF domains were created; made in house
T2 sequence (Q86YZ3 1-81 limits assumed): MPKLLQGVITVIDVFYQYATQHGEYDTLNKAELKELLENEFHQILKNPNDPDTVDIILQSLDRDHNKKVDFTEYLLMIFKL
Procedure: FIG. 31 depicts biolayer interferometry to determine B-40 liposome binding to EF fragment of Hornerin. Using Fortebio octect system, B-40 liposomes binding to EF fragment was carried out. Streptavidin sensors were coated with Biotinylated EF fragments and their interaction with no peptide, I-1 and B-40 liposomes was tested.
FIG. 33 depicts biolayer interferometry to determine B-40 liposome binding to EF domains. Using Fortebio octect system, B-40 peptide binding to different EF fragments was carried out. Streptavidin sensors were coated with biotinylated B-40 peptide and its interaction with different fragments containing EF domains was carried out.

CRIP-2 = target: T3, CRIP-2 (Mus musculus, UniProt Q9DCT8); design: reference not given here; conditions: via binding to CRIP-2 in myocardium and endothelium; cited from earlier work
T3 construct: host or cells: myocardium and endothelium of the heart
T3 sequence (Q9DCT8 1-208): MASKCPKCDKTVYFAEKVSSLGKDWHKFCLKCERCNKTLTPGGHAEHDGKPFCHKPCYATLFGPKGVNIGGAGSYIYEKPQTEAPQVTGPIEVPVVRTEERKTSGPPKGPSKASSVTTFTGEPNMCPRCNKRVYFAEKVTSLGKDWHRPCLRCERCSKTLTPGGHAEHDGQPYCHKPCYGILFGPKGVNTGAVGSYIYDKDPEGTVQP

Row | Compound | Cell type / component for which phage clone is specific [1] | Cell type for which peptide conjugated liposomes are specific [2] | other results
1 | TMQHDG (listed as Homo sapiens) [B-11] | extracellular matrix |  | 
2 | GLSQLQR (listed as Homo sapiens) [B-50] | c-Kit+ cells | c-Kit+ cells | 
3 | RPPALAP (listed as Homo sapiens) [B-29] | myofibroblasts | myofibroblasts | 
4 | AMRPPLN (listed as Homo sapiens) [B-42] | cardiomyocytes |  | 
5 | TALPRLN (listed as Homo sapiens) [I-1] | cardiomyocytes | cardiomyocytes | 
6 | ATMSRAP (listed as Homo sapiens) [B-47] | endothelial cells |  | 
7 | Clc1ccc(Nc2nnc(Cc3ccncc3)c3ccccc23)cc1 [PTK787] |  |  | Percent effective in reducing neovessel formation (VEGFR2; 20 mg/kg-d): 18%; Vessel volume fraction (VVF) in infarct region (VEGFR2; 20 mg/kg-d): 0.052; Percent effective in reducing neovessel formation (VEGFR2; 100 mg/kg-d): 65%; Vessel volume fraction (VVF) in infarct region (VEGFR2; 100 mg/kg-d): 0.021; Vessel volume fraction (VVF) in infarct region (VEGFR2; 100 mg/kg-d, listed as free PTK787): 0.022; Median (ED50, bootstrap) (VEGFR2; 1000 nonparametric bootstrap data sets): 63 mg/kg-d; Estimated (ED50) (VEGFR2; Imax model fit from vessel volume fraction): 63 mg/kg-d
8 | SHSNARS (listed as Homo sapiens) [B-27] | c-Kit+ cells |  | 
9 | SDTWSSR (listed as Homo sapiens) [B-7] | myofibroblasts |  | 
10 | SLLNRMP (listed as Homo sapiens) [B-40] | endothelial cells | endothelial cells | Binding to fragments containing EF domains (EF fragment of Hornerin): possible binding partner
11 | CRPPR [CRPPR-peptide] |  |  | Targeting to the heart (CRIP-2): 47 fold
12 | NCP: intentionally off-target peptide (Panc-27) previously shown to be specific for pancreatic cancer cells (KTLLPTP) [reference compound] |  | non-specifically taken up by macrophages | 
13 | ESRQVTP (listed as Homo sapiens) [B-43] | extracellular matrix |  | 
